Literature values as cited in US20220372506A1, “CYP81E GENES […] TOLERANCE” (Colorado State University Research Foundation, priority 2020, published 2022).
“Also recorded” adds a separate entry of the source.

Key:
[1] = system: A. tuberculatus NEB population
[2] = system: A. tuberculatus CHR population; conditions: CHR population compared to WUS; for level of resistance (dose response): Evans et al. 2019
[3] = system: A. tuberculatus NEB population; conditions: malathion pre-treatment before 2,4-D, Figueiredo et al. 2018

O=C(O)COc1ccc(Cl)cc1Cl [2,4-D, 2,4-dichlorophenoxyacetic acid]
level of 2,4-D resistance ([1]; NEB population compared to the Nebraska 2,4-D sensitive population, Bernards et al. 2012): 10 fold | level of resistance (dose response) [2]: 9 fold

CCOC(=O)CC(SP(=S)(OC)OC)C(=O)OCC (stereo not drawn) [malathion]
effect of pre-treatment on 2,4-D resistance phenotype [3]: reverted to sensitivity; also recorded: reversed the resistance phenotype

CS(=O)(=O)c1ccc(C(=O)C2C(=O)CCCC2=O)c(Cl)c1COCC(F)(F)F [tembotrione]
resistance to tembotrione ([1]; NEB population compared to WUS, Murphy and Tranel, 2019): 15 fold | resistance to tembotrione ([2]; Murphy and Tranel, 2019): 43 fold

CS(=O)(=O)c1ccc(C(=O)C2C(=O)CCCC2=O)c([N+](=O)[O-])c1 [mesotrione]
level of resistance (dose response) [2]: ~15 fold
